Measurements as given in BindingDB's records for doi:10.1111/cbdd.12445 (Konkuk University, 2015).

These compounds were tested against Aurora kinase B (Homo sapiens, UniProt Q96GD4) (assay: Aurora B Kinase Assay).
Chain of Aurora kinase B (Q96GD4 whole entry): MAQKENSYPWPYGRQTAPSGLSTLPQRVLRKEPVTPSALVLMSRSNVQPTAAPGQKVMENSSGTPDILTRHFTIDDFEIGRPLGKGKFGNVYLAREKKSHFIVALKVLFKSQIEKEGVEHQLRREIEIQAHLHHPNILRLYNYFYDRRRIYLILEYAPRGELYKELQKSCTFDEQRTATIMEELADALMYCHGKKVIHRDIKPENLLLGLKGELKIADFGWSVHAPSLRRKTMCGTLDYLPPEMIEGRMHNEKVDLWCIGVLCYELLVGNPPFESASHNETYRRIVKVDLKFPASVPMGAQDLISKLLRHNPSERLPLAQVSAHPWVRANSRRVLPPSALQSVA

SMILES | IC50
O=c1c(O)c(-c2ccc(O)c(O)c2)oc2cc(O)cc(O)c12 [2-(3,4-dihydroxyphenyl)-3,5,7-trihydroxy-chromone;hydrate] | 3.96 µM
C[C@@H]1O[C@@H](Oc2c(-c3cc(O)c(O)c(O)c3)oc3cc(O)cc(O)c3c2=O)[C@H](O)[C@H](O)[C@H]1O [5,7-dihydroxy-3-[(2S,3R,4R,5R,6S)-3,4,5-trihydroxy-6-methyloxan-2-yl]oxy-2-(3,4,5-trihydroxyphenyl)chromen-4-one] | 3.89 µM
O=c1c(O)c(-c2ccccc2)oc2ccccc12 [3-hydroxy-2-phenyl-4H-chromen-4-one] | 4.29 µM
O=c1c(O)c(-c2cc(O)c(O)c(O)c2)oc2cc(O)cc(O)c12 | 3.98 µM
COc1ccc(-c2cc(=O)c3c(OC)c(OC)c(OC)cc3o2)cc1OC [2-(3,4-dimethoxyphenyl)-5,6,7-trimethoxy-4H-chromen-4-one] | 5.31 µM
O=c1c(O)c(-c2ccc(O)c(O)c2)oc2cc(O)c(O)c(O)c12 [2-(3,4-dihydroxyphenyl)-3,5,6,7-tetrahydroxy-4H-chromen-4-one] | 2.62 µM
O=c1cc(-c2ccc(O)cc2)oc2cc(O)cc(O)c12 [Naringenin, 18] | 3.96 µM
COc1cc(-c2oc3cc(O)cc(O)c3c(=O)c2O)ccc1O | 4.34 µM
O=c1cc(-c2ccc(O)cc2)oc2cc(O[C@@H]3O[C@H](CO)[C@@H](O)[C@H](O)[C@H]3O[C@@H]3OC[C@](O)(CO)[C@H]3O)cc(O)c12 [7-[(2S,3R,4S,5S,6R)-3-[(2S,3R,4R)-3,4-dihydroxy-4-(hydroxymethyl)oxolan-2-yl]oxy-4,5-dihydroxy-6-(hydroxymethyl)oxan-2-yl]oxy-5-hydroxy-2-(4-hydroxyphenyl)chromen-4-one] | 12.1 µM
O=c1c(O[C@@H]2O[C@H](CO)[C@@H](O)[C@H](O)[C@H]2O)c(-c2ccc(O)c(O)c2)oc2cc(O)cc(O)c12 [2-(3,4-dihydroxyphenyl)-5,7-dihydroxy-3-[(2S,3R,4S,5S,6R)-3,4,5-trihydroxy-6-(hydroxymethyl)oxan-2-yl]oxychromen-4-one] | 10.7 µM
O=C(O)[C@H]1O[C@@H](Oc2cc3oc(-c4ccccc4)cc(=O)c3c(O)c2O)[C@H](O)[C@@H](O)[C@@H]1O [(2S,3S,4S,5R,6S)-6-(5,6-dihydroxy-4-oxo-2-phenyl-4H-chromen-7-yloxy)-3,4,5-trihydroxy-tetrahydro-2H-pyran-2-carboxylic acid] | 12.2 µM
O=c1c(O)c(-c2ccc(O)c(O)c2)oc2c(O)c(O)cc(O)c12 | 4.1 µM
O=c1c(O)c(-c2ccc(O)c(O)c2)oc2c(O[C@@H]3O[C@H](CO)[C@@H](O)[C@H](O)[C@H]3O)c(O)cc(O)c12 [2-(3,4-dihydroxyphenyl)-3,5,7-trihydroxy-8-[(2S,3R,4S,5S,6R)-3,4,5-trihydroxy-6-(hydroxymethyl)oxan-2-yl]oxychromen-4-one] | 11.1 µM
O=c1cc(-c2ccccc2)oc2cc(O)c(O)c(O)c12 | 4.06 µM
O=c1cc(-c2ccc(O)c(O)c2)oc2cc(O)cc(O)c12 [2-(3,4-dihydroxyphenyl)-5,7-dihydroxy-4H-chromen-4-one] | 3.88 µM
O=c1cc(-c2ccc(O)cc2)oc2cc(O)c(O)c(O)c12 [5,6,7-trihydroxy-2-(4-hydroxyphenyl)-4H-chromen-4-one] | 3.85 µM
COc1cc(-c2cc(=O)c3c(O)c(OC)c(OC)c(OC)c3o2)cc(OC)c1OC [5-hydroxy-6,7,8-trimethoxy-2-(3,4,5-trimethoxyphenyl)chromen-4-one] | 42.7 µM

The remaining lines, values ahead:

IC50 | SMILES
2.85 µM | COc1cc(-c2oc3cc(O)ccc3c(=O)c2O)ccc1O [3,7-dihydroxy-2-(4-hydroxy-3-methoxyphenyl)chromen-4-one]
2.63 µM | O=c1c(O)c(-c2ccc(O)c(O)c2)oc2cc(O)ccc12 [2-(3,4-dihydroxyphenyl)-3,7-dihydroxy-chromen-4-one]
29.4 µM | O=c1c(O)c(-c2ccc(O[C@@H]3O[C@H](CO)[C@@H](O)[C@H](O)[C@H]3O)c(O)c2)oc2cc(O)cc(O)c12
4.03 µM | O=c1c(O)c(-c2ccc(O)cc2)oc2cc(O)cc(O)c12
4.71 µM | O=c1c(O)c(-c2ccc(O)cc2O)oc2cc(O)cc(O)c12 [2-(2,4-dihydroxyphenyl)-3,5,7-trihydroxychromen-4-one]
7.39 µM | COc1ccc(-c2oc3cc(O)cc(O)c3c(=O)c2O)cc1O [3,5,7-trihydroxy-2-(3-hydroxy-4-methoxyphenyl)-4H-chromen-4-one]
17.8 µM | O=c1c(O)c(-c2ccccc2O)oc2cc(O)cc(O)c12 [3,5,7-trihydroxy-2-(2-hydroxyphenyl)chromen-4-one]
9.8 µM | O=c1c(O)c(-c2ccccc2)oc2cc(O)cc(O)c12 [norizalpinin]
